Experimental data: article PMC11031590, “Narazaciclib, a novel multi-kinase inhibitor with potent activity against CSF1R, FLT3 and CDK6, shows strong anti-AML activity in defined preclinical models” (Scientific Reports, 2024)
pIC50: −log10 of the molar value.

Experiments:
Experiment in all cases: AML cell line in vitro proliferation assay
Format in all cases: cell-based
M07E = system: M07E
Protocol: (§1) Narazaciclib was serially diluted with culture medium to 9 final assay concentrations from 0.01 to 100 μM. The assay was performed with both a negative control (vehicle) and a positive control (Cisplatin) in triplicate. The AML cell lines at log-growth phase were cultured in 96-well plates (black transparent flat bottom 96-well plate, Corning, Cat# 3603, FBS, ExCell Bio., Cat# FND500) in the presence of narazaciclib or Cisplatin at various concentrations for 72 h or 120 h (only for AML-193 cell line), followed by CTG readout according to the manufacturer’s instruction (CellTiter-Glo Luminescent Cell Viability Assay, Promega, Cat# G7573). Viability%=Lumdrug-Lummedium control/Lumcell control-Lummedium control×100%. Lumcell control-Lummedium controlas100%,LumMediumcontrolas0%. Proliferationfold increase=D5-LumNone treated-LumMedium control/D2LumNone treated-LumMedium control
(§2) Dose–response curves were fitted by a 4-parameter log-logistic model: Inhibition%=Bottom+Top-Bottom/1+10^logEC50-x∗HillSlope where Top and Bottom are the two asymptotes of the sigmoidal curve, EC50 is the relative IC50, concentration x is in log-10 scale and HillSlope is the slope at the EC50 point on the fitted curve. The fitted area under the curve (AUC) was calculated by: Inhibition%=Bottom+Top-Bottom/1+10^logEC50-x∗HillSlope where a represents the log10-transformed minimal concentration and b represents the log10-transformed maximal concentration. An extremely strong positive correlation between the absolute IC50 and AUC is shown in Supplemental Fig. S5.

OCI-AML-5 = system: OCI-AML-5
Protocol: as §1, §2

OCI-AML-3 = system: OCI-AML-3
Protocol: as §1, §2

THP-1 = system: THP-1
Protocol: as §1, §2

KASUMI-6 = system: KASUMI-6
Protocol: as §1, §2

AML-193 = system: AML-193
Protocol: as §1, §2

MOLM-13 = system: MOLM-13
Protocol: as §1, §2

OCI-AML-2 = system: OCI-AML-2
Protocol: as §1, §2

ML2 = system: ML2
Protocol: as §1, §2

UT7 = system: UT7
Protocol: as §1, §2

KG-1 = system: KG-1
Protocol: as §1, §2

SKNO-1 = system: SKNO-1
Protocol: as §1, §2

CMK-115 = system: CMK-115
Protocol: as §1, §2

MONOMAC-1 = system: MONOMAC-1
Protocol: as §1, §2

CMK = system: CMK
Protocol: as §1, §2

HEL-9217 = system: HEL-9217
Protocol: as §1, §2

SKM-1 = system: SKM-1
Protocol: as §1, §2

OCI-M2 = system: OCI-M2
Protocol: as §1, §2

NB4 = system: NB4
Protocol: as §1, §2

KASUMI-1 = system: KASUMI-1
Protocol: as §1, §2

HNT34 = system: HNT34
Protocol: as §1, §2

HEL = system: HEL
Protocol: as §1, §2

MOLM-16 = system: MOLM-16
Protocol: as §1, §2

MONOMAC-6 = system: MONOMAC-6
Protocol: as §1, §2

[1] = area under the dose–response curve

With `CN1CCN(c2ccc(Nc3ncc4cc(C#N)c(=O)n(C5CCCC5)c4n3)cc2)CC1` [Narazaciclib, narazaciclib] the “Classification by AUC” value (M07E) was “Intermediate (2.4 < AUC < 2.8, intermediate)”, the pIC50 (M07E; M-07e, 72 h, CTG) was 5.31 and the AUC (M07E; [1]) was 2.557. The pIC50 (OCI-AML-5; Homo sapiens, OCI-AML-5, 72 h, CTG) was 6.43, the “Classification by AUC” value (OCI-AML-5; OCI-AML-5) was “Sensitive (AUC ≤ 2.4, sensitive)” and the AUC (OCI-AML-5; OCI-AML-5, area under the dose–response curve) was 1.636. The pIC50 (OCI-AML-3; Homo sapiens, OCI-AML-3, 72 h, CTG) was 5.53, the “Classification by AUC” value (OCI-AML-3; OCI-AML-3) was “Insensitive (AUC ≥ 2.8, insensitive)” and the AUC (OCI-AML-3; OCI-AML-3, area under the dose–response curve) was 2.863. For the same molecule, the pIC50 (THP-1; Homo sapiens, THP-1, 72 h, CTG) was less than 4.00, the “Classification by AUC” value (THP-1; THP-1) was “Insensitive (AUC ≥ 2.8, insensitive)” and the AUC (THP-1; THP-1, area under the dose–response curve) was 3.445. For the same molecule, the “Classification by AUC” value (KASUMI-6; KASUMI-6) was “Sensitive (AUC ≤ 2.4, sensitive)”, the pIC50 (KASUMI-6; KASUMI-6, 72 h, CTG) was 5.83 and the AUC (KASUMI-6; KASUMI-6, area under the dose–response curve) was 2.251. For the same molecule, the “Classification by AUC” value (AML-193; AML-193) was “Intermediate (2.4 < AUC < 2.8, intermediate)”, the pIC50 (AML-193; AML-193, 120 h, CTG) was 5.20 and the AUC (AML-193; AML-193, area under the dose–response curve) was 2.514. The pIC50 (MOLM-13; Homo sapiens, MOLM-13, 72 h, CTG) was 6.99, the “Classification by AUC” value (MOLM-13; MOLM-13) was “Sensitive (AUC ≤ 2.4, sensitive)” and the AUC (MOLM-13; MOLM-13, area under the dose–response curve) was 1.068. For the same molecule, the pIC50 (OCI-AML-2; Homo sapiens, OCI-AML2, OCI-AML-2, 72 h, CTG) was 5.94, the “Classification by AUC” value (OCI-AML-2; OCI-AML-2) was “Sensitive (AUC ≤ 2.4, sensitive)” and the AUC (OCI-AML-2; OCI-AML-2, area under the dose–response curve) was 2.116. For the same molecule, the pIC50 (ML2; Homo sapiens, ML-2, ML2, 72 h, CTG) was 5.44, the “Classification by AUC” value (ML2; ML2) was “Intermediate (2.4 < AUC < 2.8, intermediate)” and the AUC (ML2; ML2, area under the dose–response curve) was 2.633. For the same molecule, the pIC50 (UT7; Homo sapiens, UT7, 72 h, CTG) was 4.21, the “Classification by AUC” value (UT7; UT7) was “Insensitive (AUC ≥ 2.8, insensitive)” and the AUC (UT7; UT7, area under the dose–response curve) was 3.469. For the same molecule, the pIC50 (KG-1; Homo sapiens, KG-1, 72 h, CTG) was 5.75, the “Classification by AUC” value (KG-1; KG-1) was “Intermediate (2.4 < AUC < 2.8, intermediate)” and the AUC (KG-1; KG-1, area under the dose–response curve) was 2.63. The “Classification by AUC” value (SKNO-1; SKNO-1) was “Sensitive (AUC ≤ 2.4, sensitive)”, the pIC50 (SKNO-1; SKNO-1, 72 h, CTG) was 6.63 and the AUC (SKNO-1; SKNO-1, area under the dose–response curve) was 1.97. The pIC50 (CMK-115; CMK-11-5, CMK-115, 72 h, CTG) was 5.29, the “Classification by AUC” value (CMK-115; CMK-115) was “Insensitive (AUC ≥ 2.8, insensitive)” and the AUC (CMK-115; CMK-115, area under the dose–response curve) was 2.801. The “Classification by AUC” value (MONOMAC-1; MONOMAC-1) was “Sensitive (AUC ≤ 2.4, sensitive)”, the AUC (MONOMAC-1; MONOMAC-1, area under the dose–response curve) was 1.906 and the pIC50 (MONOMAC-1; Mono-Mac-1, MONOMAC-1, 72 h, CTG) was 6.53. The “Classification by AUC” value (CMK) was “Sensitive (AUC ≤ 2.4, sensitive)”, the pIC50 (CMK; Homo sapiens, 72 h, CTG) was 5.78 and the AUC (CMK; [1]) was 2.347. The “Classification by AUC” value (HEL-9217; HEL-9217) was “Insensitive (AUC ≥ 2.8, insensitive)”, the AUC (HEL-9217; HEL-9217, area under the dose–response curve) was 3.209 and the pIC50 (HEL-9217; Homo sapiens, HEL 92.1.7, HEL-9217, 72 h, CTG) was 4.80. The pIC50 (SKM-1; Homo sapiens, SKM-1, 72 h, CTG) was 5.71, the “Classification by AUC” value (SKM-1; SKM-1) was “Sensitive (AUC ≤ 2.4, sensitive)” and the AUC (SKM-1; SKM-1, area under the dose–response curve) was 2.323. For the same molecule, the “Classification by AUC” value (OCI-M2; OCI-M2) was “Insensitive (AUC ≥ 2.8, insensitive)”, the pIC50 (OCI-M2; OCI-M2, 72 h, CTG) was less than 4.00 and the AUC (OCI-M2; OCI-M2, area under the dose–response curve) was 3.46. The pIC50 (NB4; Homo sapiens, NB-4, NB4, 72 h, CTG) was 5.48, the “Classification by AUC” value (NB4; NB4) was “Insensitive (AUC ≥ 2.8, insensitive)” and the AUC (NB4; NB4, area under the dose–response curve) was 2.865. For the same molecule, the pIC50 (KASUMI-1; Homo sapiens, KASUMI-1, 72 h, CTG) was 6.77, the “Classification by AUC” value (KASUMI-1; KASUMI-1) was “Sensitive (AUC ≤ 2.4, sensitive)” and the AUC (KASUMI-1; KASUMI-1, area under the dose–response curve) was 1.307. The “Classification by AUC” value (HNT34; HNT34) was “Sensitive (AUC ≤ 2.4, sensitive)”, the AUC (HNT34; HNT34, area under the dose–response curve) was 2.068 and the pIC50 (HNT34; HNT-34, HNT34, 72 h, CTG) was 5.83. The “Classification by AUC” value (HEL) was “Insensitive (AUC ≥ 2.8, insensitive)”, the pIC50 (HEL; Homo sapiens, 72 h, CTG) was 4.82 and the AUC (HEL; [1]) was 3.335. The pIC50 (MOLM-16; MOLM16, MOLM-16, 72 h, CTG) was 5.32, the “Classification by AUC” value (MOLM-16; MOLM-16) was “Insensitive (AUC ≥ 2.8, insensitive)” and the AUC (MOLM-16; MOLM-16, area under the dose–response curve) was 2.992. The pIC50 (MONOMAC-6; Homo sapiens, MONO-MAC-6, MONOMAC-6, 72 h, CTG) was 5.82, the “Classification by AUC” value (MONOMAC-6; MONOMAC-6) was “Sensitive (AUC ≤ 2.4, sensitive)” and the AUC (MONOMAC-6; MONOMAC-6, area under the dose–response curve) was 2.356.
